Laboratory results published in ChEMBL document CHEMBL1127276, “Chemical and plasma hydrolyses of a diphenyl -aminomethyl phosphonate prodrug inhibitor of neutral endopeptidase 24.11” (Bioorg Med Chem Lett, 1994).

Tests used:
[1] = Half life at a pH 13.65 in KOH medium; type: ADME
[2] = Half life at a pH 8.78 in KHCO3 medium; type: ADME
[3] = In vitro half life at 1.5 -5.6ug/mL, 37 degree C in human plasma; type: ADME, cell-free
[4] = Half life at a pH 8.5 in Na2HPO4/NaH2PO4 medium; type: ADME
[5] = In vitro half life at 1.5 -5.6ug/mL, 37 degree C in dog plasma; type: ADME, Canis lupus familiaris
[6] = Half life at a pH 12.01 in […] medium; type: ADME
[7] = In vitro half life at 1.5 -5.6ug/mL, 37 degree C in rat plasma; type: ADME
[8] = In vitro half life at 1.5 -5.6ug/mL, 37 degree C in monkey plasma; type: ADME, cell-free; details: cercopithecidae
[9] = Half life at a pH 8.44 in NaHCO3 medium; type: ADME
[10] = Ionization constant in basic (NH2+) medium; type: physicochemical; details: read-out: pKa4
[11] = Ionization constant in acidic (COOH)medium; type: physicochemical; details: read-out: pKa2
[12] = Ionization constant in slightly acidic(POH) medium; type: physicochemical; details: read-out: pKa3

SMILES | half-life [1] [min] | half-life [2] [h] | half-life [3] [h] | half-life [4] [h] | half-life [5] [h] | half-life [6] [h] | half-life [7] [h] | half-life [8] [h] | half-life [9] [h] | pKa [10] | pKa [11] | pKa [12]
O=C(O)CCNC(=O)[C@H](Cc1ccc(-c2ccccc2)cc1)NCP(=O)(Oc1ccccc1)Oc1ccccc1 | < 5 | 8.19 | 1.4 | > 96 | 13 | < 0.167 | 2.5 | 4.7 | 8.68 | – | – | –
O=C(O)CCNC(=O)[C@H](Cc1ccc(-c2ccccc2)cc1)NCP(=O)(O)O | – | – | – | – | – | – | – | – | – | 10 | 5.5 | 7.8
O=C(O)CCNC(=O)[C@H](Cc1ccc(-c2ccccc2)cc1)NCP(=O)(O)Oc1ccccc1 | > 6 | 0.51 | 4.2 | > 6 | 38 | > 0.1 | 9.4 | > 7.8 | 0.55 | 10 | 5.8 | –
